The values below come from patent US20230105212A1, “BIPHENYL DERIVATIVE INHIBITOR, PREPARATION METHOD THEREFOR AND USE THEREOF” (SHANGHAI HANSOH BIOMEDICAL CO., LTD., priority 2020, published 2023).

For test [1], the target named is T1, PD-L1 protein on the surface of MC38-hPDL1 tumor cells (Homo sapiens, UniProt Q9NZQ7).
T1 construct: expressed in transfected cells; host or cells: MC38-hPDL1 (mouse colon cancer cells)
Nature of the test: Induction of endocytosis of PD-L1 on the surface of tumor cells (flow cytometry). Format: cell-based. Particulars: 16 hours incubation; for Emax: MC38-hPDL1 cells, read-out: MC38 maximum endocytosis rate; for IC50: inducing endocytosis of PD-L1, MC38-hPDL1 cells, read-out: MC38 IC50. Summed up:
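MC38-hPDL1 mouse colon cancer cells overexpressing human PD-L1 were exposed to compound dilutions for 16 h at 37 °C. Surface PD-L1 was then stained with PE anti-human CD274 for 30 min at room temperature and measured by flow cytometry. Endocytosis rate versus concentration was fitted by nonlinear regression to give IC50.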
(Flow cytometry measures light scatter and fluorescence of single cells or particles in a stream.)

For test [2], the system named is CHO-PDL1/Jurkat-PD1 cell pathway. Nature of the test: Inhibition of CHO-PDL1/Jurkat-PD1 cell pathway (NFAT luciferase reporter). The test is classed as cell-based. The following applies: for EC50: 6 hours incubation, luciferase signal; for maximal fold induction: relative to the signal value of the non-dosed group, read-out: Maximum induction fold. Summed up: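 CHO-K1 cells stably expressing PD-L1, plated overnight, then co-cultured with PD-1/NFAT-luc2 Jurkat cells plus compounds in RPMI 1640 with 2% FBS for 6 h at 37 °C. Luminescence read after One-Glo, 10 min at RT. EC50 fitted from the concentration–signal curve; maximum induction fold calculated relative to the non-dosed group.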

T1 sequence (Q9NZQ7 19-290): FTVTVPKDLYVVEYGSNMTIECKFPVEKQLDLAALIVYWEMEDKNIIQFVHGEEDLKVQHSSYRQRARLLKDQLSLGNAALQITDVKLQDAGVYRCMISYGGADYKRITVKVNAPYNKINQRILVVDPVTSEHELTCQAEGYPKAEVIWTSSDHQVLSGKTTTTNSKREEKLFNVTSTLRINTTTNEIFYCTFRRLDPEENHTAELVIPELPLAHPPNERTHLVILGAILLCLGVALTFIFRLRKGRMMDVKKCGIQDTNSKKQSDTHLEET

By IC50 is commonly meant the concentration at which inhibition is half-maximal. As a reminder, the EC50 is the concentration giving half of the maximal effect. Low values mean higher potency in that assay, high ones lower potency in that assay. For `COc1nc(-c2cccc(-c3cccc(NC(=O)c4nc5c(n4C)CCN(C)C5)c3Cl)c2Cl)cnc1CN1CC2(C1)CN(C(C)=O)C2` [Embodiment 152, N-(3′-(5-((6-Acetyl-2,6-diazaspiro[3.3]heptan-2-yl)methyl)-6-methoxypyrazin-2-yl)-2,2′-dichloro-[1,1′-biphenyl]-3-yl)-1,5-dimethyl-4,5,6,7-tetrahydro-1H-imidazo[4,5-c]pyridine-2-carboxamide], in test [1], the Emax was 97% and the IC50 is 0.6 nM. In test [2], the EC50 turned out to be 66 nM and the maximal fold induction turned out to be 3.4.

`COc1nc(-c2cccc(-c3cccc(NC(=O)c4nc5c(n4C)CCN(C)C5)c3Cl)c2Cl)ccc1CN1CC(F)C1` [Embodiment 120, N-(2,2′-Dichloro-3′-(5-((3-fluoroazetidin-1-yl)methyl)-6-methoxypyridin-2-yl)-[1,1′-biphenyl]-3-yl)-1,5-dimethyl-4,5,6,7-tetrahydro-1H-imidazo[4,5-c]pyridine-2-carboxamide]: in test [1], the Emax worked out at 95% and the IC50 worked out at 1.2 nM. In addition, in test [2], the EC50 is 70 nM and the maximal fold induction stood at 3.2.

`COc1nc(-c2cccc(-c3cccc(NC(=O)c4nc5c(n4C)CCN(C)C5)c3Cl)c2Cl)cnc1CN1CC(NC(C)=O)C1` [Embodiment 218, N-(3′-(5-((3-Acetylaminoazetidin-1-yl)methyl)-6-methoxypyrazin-2-yl)-2,2′-dichloro-[1,1′-biphenyl]-3-yl)-1,5-dimethyl-4,5,6,7-tetrahydro-1H-imidazo[4,5-c]pyridine-2-carboxamide]: the Emax in test [1] is 95%. Moreover, in test [2], the EC50 was determined as 54 nM and the maximal fold induction came to 2.8.
